Data as given in US20170159130A1, “TRANSCRIPTIONAL CLASSIFICATION AND PREDICTION OF DRUG RESPONSE (T-CAP DR)” (priority 2015, published 2017).
Where two headings read alike, the source gives them in different places.

System: human myeloma cell lines (HMCLs)
Assay: In vitro chemosensitivity (cytotoxicity) assay, CellTiter-Glo luminescent cell viability, panel of 50 HMCLs
Assay type: cell-based
Settings: for IC50: single agent, viability 48 hours post treatment; for AUSC (area under the survival curve), Maximum / AUSC (area under the survival curve), Mean / AUSC (area under the survival curve), Median / AUSC (area under the survival curve), Minimum: trapezoidal rule, 48 hours post treatment
Procedure: Fifty (50) HMCLs were procured from various institutions, established and characterized, and maintained in Human Myeloma Cell Line (HMCL) media with IL-6 (Mitra et al., 2016). Table 1A provides the cytogenetic characteristics of the […] cytotoxicity assays were performed on the HMCLs to create a drug sensitivity profile in response to treatment with increasing concentrations of Bz, Cz, Ix and Opz as single agents and half-maximal inhibitory concentration/IC50 values and area under the survival curve/AUSC were calculated as described in Mitra et al. (2016). Briefly, cells were counted using Countess automated cell counter (Invitrogen) and seeded in 96-well plates at a concentration of 4×10^5 cells per mL. After 24 hours, cells were treated with increasing concentrations of Bz, Cz, Ix and Opz as single agents. […] Percent survival values were normalized to untreated controls and half-maximal inhibitory concentration/IC50 values were determined by calculating the nonlinear regression using sigmoidal dose-response equation (variable slope). Area under the survival curve/AUSC was calculated using trapezoidal rule and log2-transformed for further statistical analysis (Mitra et al., 2016). Caspase3/7 activity were evaluated using Caspase-Glo®3/7 Assay kit (Promega) on Synergy 2 Microplate Reader.

[1] = Homo sapiens, maximum across panel of 50 HMCLs, read-out: IC50, Maximum
[2] = Homo sapiens, mean across panel of 50 HMCLs, read-out: IC50, Mean
[3] = Homo sapiens, median across panel of 50 HMCLs, read-out: IC50, Median
[4] = Homo sapiens, minimum across panel of 50 HMCLs, read-out: IC50, Minimum
[5] = maximum across panel of 50 HMCLs
[6] = median across panel of 50 HMCLs
[7] = minimum across panel of 50 HMCLs

Structure (SMILES)	IC50 [1]	IC50 [2]	IC50 [3]	IC50 [4]	AUSC (area under the survival curve), Maximum [5]	AUSC (area under the survival curve), Mean (mean across panel of 50 HMCLs)	AUSC (area under the survival curve), Median [6]	AUSC (area under the survival curve), Minimum [7]	IC50 (maximum across panel of 50 HMCLs, read-out: IC50, Maximum)	IC50 (mean across panel of 50 HMCLs, read-out: IC50, Mean)	IC50 (median across panel of 50 HMCLs, read-out: IC50, Median)	IC50 (minimum across panel of 50 HMCLs, read-out: IC50, Minimum)
CC(C)C[C@H](NC(=O)[C@H](Cc1ccccc1)NC(=O)c1cnccn1)B(O)O [Bortezomib]	124 nM	17.1 nM	11.7 nM	2.8 nM	38.974 µM	2.7001 µM	1524.0 nM	319.6 nM				
CC(C)C[C@H](NC(=O)[C@H](CCc1ccccc1)NC(=O)CN1CCOCC1)C(=O)N[C@@H](Cc1ccccc1)C(=O)N[C@@H](CC(C)C)C(=O)[C@@]1(C)CO1 [Carfilzomib]	55.3 nM	10.9 nM	7.1 nM	0.7 nM	19.097 µM	3.5034 µM	1448.5 nM	375.5 nM				
CC(C)C[C@H](NC(=O)CNC(=O)c1cc(Cl)ccc1Cl)B(O)O [Ixazomib]					46.494 µM	10.03 µM	6456.0 nM	1702.0 nM	4760 nM	155 nM	42.1 nM	15.1 nM
COC[C@H](NC(=O)c1cnc(C)s1)C(=O)N[C@@H](COC)C(=O)N[C@@H](Cc1ccccc1)C(=O)[C@@]1(C)CO1 [Oprozomib]	776 nM	45.8 nM	23.7 nM	7.6 nM	59.917 µM	5.017 µM	2885.0 nM	1050.0 nM				
